The results in this text go back to article PMC3542197, “Downregulation of the Mitochondrial Phosphatase PTPMT1 Is Sufficient to Promote Cancer Cell Death” (PLoS ONE, 2013).

This test addresses T1, PTPMT1 (Protein Tyrosine Phosphatase localized to the Mitochondrion 1) (Homo sapiens, UniProt Q8WUK0).
T1 construct: human PTPMT1 open reading frame cloned into pGEX-KG, purified using glutathione-conjugated sepharose
T1 sequence (Q8WUK0 1-201): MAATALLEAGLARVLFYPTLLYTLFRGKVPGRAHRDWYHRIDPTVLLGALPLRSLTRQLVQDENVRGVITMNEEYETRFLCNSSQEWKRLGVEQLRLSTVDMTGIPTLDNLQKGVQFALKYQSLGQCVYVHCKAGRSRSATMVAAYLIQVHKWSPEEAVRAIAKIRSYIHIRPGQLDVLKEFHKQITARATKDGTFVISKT
Kind of test: in vitro phosphatase assay with recombinant enzyme, OMFP substrate, fluorescence readout. Type of test: biochemical.

Counter-ions that a name gives are not always drawn.

For orientation: IC50 means the concentration at which inhibition is half-maximal. In the case of `CCCCC(CC)CNC(=N)NC(=N)NCCCCCCNC(=N)NC(=N)NCC(CC)CCCC` (stereo not shown) [alexidine dihydrochloride], the concentration for half-maximal inhibition (IC50) amounted to 2500 nM.
